Assay results taken from US12459951B2, “Compounds that interact with RAS superfamily proteins for treatment of cancers, inflammatory diseases, rasopathies, and fibrotic disease” (SHY Therapeutics, LLC, priority 2022, dated 2025).

How the values were obtained:
[1] = test system: GP2d (expressing KRas G12D mutant); assay: Proliferation Assay (Cell Viability Assay); type: cell-based; conditions: Homo sapiens, Proliferation assay, read-out: GP2d IC50 (nM) Colorectal
In short: (§1)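 Cells plated at 2000–5000/well overnight, then treated 2–4 days at 37 °C, 5% CO2 with compound at 10 μM single dose or serial dilutions for IC50, in 0.3% DMSO and 10% FBS. Viability read by CellTiter 96 Aqueous One (MTS); % proliferation inhibition calculated from raw data.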

[2] = test system: MM.1R (expressing wild type KRAS); assay: Proliferation Assay (Cell Viability Assay); type: cell-based; conditions: Homo sapiens, read-out: MM.1R IC50 (nM) Multiple Myloma
In short: as §1

[3] = Kinetic Solubility Assay in pH 7.4 Buffer + 2% DMSO; type: physicochemical; conditions: phosphate-buffered saline pH 7.4 with 2% DMSO, aqueous buffer, kinetic from dmso stock, 25° C., two hours
In short: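 Compound from 20 mM DMSO stock diluted to nominal 400 μM in PBS pH 7.4 with 2% DMSO, in duplicate, shaken 2 h at 25° C., then filtered. Filtrate quantified by UV absorbance (230-550 nm) against 10-200 μM calibration curves; effective range ~2-400 μM.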

IC50 [2] [nM] | solubility at 2 h [3] [µM] | SMILES | IC50 [1] [nM]
< 1 | 10 to 30 | Cc1c(-c2ccn(C(C)C)n2)cn2nc(-c3nccn3C)nc(Nc3ccn(C4CC4)n3)c12 [Compound 84, N-(1-Cyclopropyl-1H-pyrazol-3-yl)-6-(1-isopropyl-1H-pyrazol-3-yl)-5-methyl-2-(1-methyl-1H-imidazol-2-yl)pyrrolo[2,1-f][1,2,4]triazin-4-amine] | 1 to 10
 | > 30 | Cc1c(-c2ccn(C(C)C)n2)cn2nc(-c3nccn3C)nc(Nc3cc4n(n3)CCO4)c12 [Compound 91, N-(6-(1-Isopropyl-1H-pyrazol-3-yl)-5-methyl-2-(1-methyl-1H-imidazol-2-yl)pyrrolo[2,1-f][1,2,4]triazin-4-yl)-2,3-dihydropyrazolo[5,1-b]oxazol-6-amine] | 
